Earlier results as cited in US10485825B2, “Prevention of pregnancy complications by noble gas administration” (NOBLIS THERAPEUTICS, INC., priority 2016, dated 2019).

System: Tregs
Details: CCL20 stimulation; blocked by neutralizing anti-CCL20 antibody

CCL20: CCL20 protein used to stimulate Treg migration in a cited study
increase in migration of CCL20-stimulated Tregs: 3.21 fold
